The text below walks through data of patent US7220875B2, “Amino acid derived prodrugs of propofol, compositions and uses thereof” (priority 2003, dated 2007).

Data set [1] is described as follows: Enzymatic cleavage of prodrugs in vitro, rat plasma. The class given is in vitro ADME. The settings on record: substrate 2.0 μM, 37° C. How it is done:
(§1) The stability of propofol prodrugs were evaluated in one or more in vitro systems using a variety of tissue preparations following methods known in the art. Tissues were obtained from commercial sources (e.g., Pel-Freez Biologicals, Rogers, Ark., or GenTest Corporation, Woburn, Mass.). Experimental conditions used for the in vitro studies are described in Table 1 below. Each preparation was incubated with test compound at 37° C. for one hour. Aliquots (50 μL) were removed at 0, 30, and 60 min and quenched with 0.1% trifluoroacetic acid in acetonitrile. Samples were then centrifuged and analyzed by LC/MS/MS (see Examples 59 and 60 below for method details). Stability of drug conjugates towards specific enzymes (e.g., peptidases, etc.) were also assessed in vitro by incubation with the purified enzyme: […]

The nature of data set [2]: Enzymatic cleavage of prodrugs in vitro, human plasma. The class given is in vitro ADME. The settings on record: substrate 2.0 μM, 37° C. The protocol: as §1
Data set [3] can be described thus: Enzymatic cleavage of prodrugs in vitro, rat liver S9. It counts as in vitro ADME. The conditions noted are these: Rat Liver S9 (0.5 mg/mL), substrate 2.0 μM, NADPH, 37° C. How it is done:
as §1

Data set [4] is described as follows: Enzymatic cleavage of prodrugs in vitro, human liver S9. It counts as in vitro ADME. The conditions noted are these: Human Liver S9 (0.5 mg/mL), substrate 2.0 μM, NADPH, 37° C. How it is done: as §1
A short description of data set [5]: Caco-2 homogenate S9 stability. The class given is in vitro ADME. The settings on record: Caco-2 S9 (0.5 mg protein per mL), prodrug 5 μM, 37° C. The protocol: (§2) The stability of propofol prodrugs were evaluated in one or more in vitro systems using a variety of tissue preparations following methods known in the art. Tissues were obtained from commercial sources (e.g., Pel-Freez Biologicals, Rogers, Ark., or GenTest Corporation, Woburn, Mass.). Experimental conditions used for the in vitro studies are described in Table 1 below. Each preparation was incubated with test compound at 37° C. for one hour. Aliquots (50 μL) were removed at 0, 30, and 60 min and quenched with 0.1% trifluoroacetic acid in acetonitrile. Samples were then centrifuged and analyzed by LC/MS/MS (see Examples 59 and 60 below for method details). Stability of drug conjugates towards specific enzymes (e.g., peptidases, etc.) were also assessed in vitro by incubation with the purified enzyme:
Caco-2 Homogenate S9 Stability: Caco-2 cells were grown for 21 days prior to harvesting. Culture medium was removed and cell monolayers were rinsed and scraped off into ice-cold 10 mM sodium phosphate/0.15 M potassium chloride, pH 7.4. Cells were lysed by sonication at 4° C. using a probe sonicator. Lysed cells were then transferred into 1.5 mL centrifuge vials and centrifuged at 9000 g for 20 min at 4° C. The resulting supernatant (Caco-2 cell homogenate S9 fraction) was aliquoted into 0.5 mL vials and stored at −80° C. until used.
For stability studies, prodrug (5 μM) was incubated in Caco-2 homogenate S9 fraction (0.5 mg protein per mL) for 60 min at 37° C. Concentrations of intact prodrug and released propofol were determined at zero time and 60 minutes using LC/MS/MS.

Data set [6] concerns pancreatin. The data set can be described thus: Pancreatin stability. It counts as in vitro ADME, porcine. The settings on record: 1% (w/v) pancreatin, pH 7.5, conjugate 5 μM, 37° C. The protocol:
as §2
Pancreatin Stability: Stability studies were conducted by incubating conjugate (5 μM) with 1% (w/v) pancreatin (Sigma, P-1625, from porcine pancreas) in 0.025 M Tris buffer containing 0.5 M NaCl (pH 7.5) at 37° C. for 60 min. The reaction was stopped by addition of 2 volumes of methanol. After centrifugation at 14,000 rpm for 10 min, the supernatant was removed and analyzed by LC/MS/MS.

Data set [7] in a line: in vivo. The conditions noted are these: male, Sprague-Dawley, rat, plasma, oral, 25 mg per kg body weight.
Method: Propofol was administered as an intravenous bolus injection or by oral gavage to groups of four to six adult male Sprague-Dawley rats (weight approx 250 g) as solutions in PEG400, at doses of 10 mg per kg body weight (I.V.) or 25 mg per kg body weight (oral). Animals were fasted overnight before the study and for 4 hours post-dosing. Blood samples (1.0 mL) were obtained via a jugular vein cannula at intervals over 24 hours after oral dosing. Blood was quenched immediately using acetonitrile with 1% formic acid and then was frozen at −80° C. until analyzed.
Concentrations of propofol in plasma were determined using an API 4000 LC/MS/MS instrument equipped with an Agilent 1100 binary pump and an Agilent autosampler. The column was a Phenomenex Hydro-RP 4.6*50 mm column operating at room temperature. The mobile phases were 2 mM aqueous ammonium acetate (A) and 95% acetonitrile with 5 mM ammonium acetate (B). The gradient condition was: 5% B for 1 min, increasing to 90% B in 2.5 min and maintained for 2 min. 20 μL of sample was injected. A Turbo-IonSpray source was used, and propofol was detected in negative ion mode in Q1 at m/z=177. The peaks were integrated using Analyst 1.2 quantitation software.
The conditions of data set [8]: rats; oral dosing; cited from earlier work.

With `CC(C)c1cccc(C(C)C)c1OC(=O)C[C@H](NC(=O)[C@@H](N)Cc1ccc(O)cc1)C(=O)O` [Compound 122, H-Tyr-Asp(OPropofol)-OH], the “% of Propofol Released from Propofol Prodrugs after 60 min.” value (“% of Propofol Released” for short) in data set [1] is 2%; in data set [2], 0%; in data set [3], 9%; in data set [4] it was 6%; in data set [5], 0%; in data set [6] it was 10%.

Consider `CC(C)c1cccc(C(C)C)c1OC(=O)OC[C@H](NC(=O)[C@H](C)N)C(=O)O` [Compound 161, H-Ala-Ser(β-OC(O)OPropofol)-OH], for which the “% of Propofol Released” value in data set [1] was 30%; in data set [2], 2%; in data set [3], 8%; in data set [4] it was 14%; in data set [5], 20%; in data set [6], 8%.

In the case of H-Gly-Tyr-OPropofol [Compound 192], the “% of Propofol Released” value in data set [1] worked out at 15%; in data set [2], 15%; in data set [3], 60%; in data set [4], 60%; in data set [5] it was 41%; in data set [6] it was 0%.

Consider `CC(C)c1cccc(C(C)C)c1OC(=O)CC[C@H](N)C(=O)N[C@@H](C)C(=O)O` [Compound 138, H-Glu(OPropofol)-Ala-OH], for which the “% of Propofol Released” value worked out at 50% in data set [1]; 44% in data set [2]; 0% in data set [3]; 0% in data set [4]; 3% in data set [5]; 9% in data set [6].

With `CC(C)c1cccc(C(C)C)c1OC(=O)C[C@H](NC(=O)[C@H](C)N)C(=O)O` [Compound 107, H-Ala-Asp(OPropofol)-OH], the “% of Propofol Released” value in data set [1] came out at 3%; in data set [2], 1%; in data set [3] it was 6%; in data set [4] it was 5%; in data set [5], 4%; in data set [6] it was 7%.

On to “H-Asp-Asp(OCH2OPropofol)-OH [Compound 220]”, for which the “% of Propofol Released” value in data set [2] is 1%; in data set [4] it was 0%; in data set [5] it was 49%; in data set [6], 6%.

Regarding `CC(C)c1cccc(C(C)C)c1OC(=O)CC[C@H](NC(=O)[C@@H](N)CC(N)=O)C(=O)O` [Compound 124, H-Asn-Glu(OPropofol)-OH], the “% of Propofol Released” value in data set [1] stood at 65%; in data set [2], 2%; in data set [3], 0%; in data set [4], 0%; in data set [5], 0%; in data set [6], 4%.

`CC(C)c1cccc(C(C)C)c1O` [Propofol, 2,6-diisopropylphenol] had a bioavailability in data set [7] of 0.23%. Moreover, the “administered drug undergoing first pass metabolism” value in data set [8] is given as “approximately 90%”.

As to `CSCC[C@H](N)C(=O)N[C@@H](CC(=O)Oc1c(C(C)C)cccc1C(C)C)C(=O)O` [Compound 121, H-Met-Asp(OPropofol)-OH], the “% of Propofol Released” value in data set [1] was 7%; in data set [2] it was 3%; in data set [3], 0%; in data set [4], 0%; in data set [5], 0%; in data set [6], 0%.

By bioavailability is commonly meant dose-corrected exposure relative to a reference, in per cent. Low readings indicate little systemic uptake, high ones much systemic uptake.
